The test has as its system KB cells (human tumour cell line ATCC CCL-17). Put plainly: EGFR driven KB cell proliferation assay (Test b). Particulars: geometric mean of n tests, EGF driven proliferation of KB cells. The test is classed as cell-based. How it is done:
b) EGFR Driven KB Cell Proliferation Assay
This assay measures the ability of a test compound to inhibit the proliferation of KB cells (human tumour cell line ATCC CCL-17).
KB cells were cultured in Dulbecco's modified Eagle's medium (DMEM) containing 10% foetal calf serum, 2 mM glutamine and 1% non-essential amino acids at 37° C. in a 7.5% CO2 air incubator. Cells were harvested from the stock flasks using Trypsin/ethylaminediaminetetraacetic acid (EDTA). Cell density was measured using a haemocytometer and viability was calculated using trypan blue solution before being seeded at a density of 1.25×10^3 cells per well of a 96 well plate in DMEM containing 2.5% charcoal stripped serum, 1 mM glutamine and 1% non-essential amino acids at 37° C. in 7.5% CO2 and allowed to settle for 4 hours.
Following adhesion to the plate, the cells are treated with or without EGF (final concentration of 1 ng/ml) and with or without compound at a range of concentrations in dimethylsulfoxide (DMSO) (0.1% final) before incubation for 4 days. Following the incubation period, cell numbers were determined by addition of 50 μl of 3-(4,5-Dimethylthiazol-2-yl)-2,5-diphenyltetrazolium bromide (MTT) (stock 5 mg/ml) for 2 hours. MTT solution was then tipped off, the plate gently tapped dry and the cells dissolved upon the addition of 100 μl of DMSO.
Absorbance of the solubilised cells was read at 540 nm using a Molecular Devices ThermoMax microplate reader. Inhibition of proliferation was expressed as an IC50 value. This was determined by calculation of the concentration of compound that was required to give 50% inhibition of EGF driven proliferation. The range of proliferation was calculated from the positive (vehicle plus EGF) and negative (vehicle minus EGF) control values. The IC50 value obtained from basal cell growth gives a measure of selectivity.
Take `COc1cc2ncnc(Nc3cccc(Cl)c3F)c2cc1O[C@H]1CCN(C)[C@H](C(N)=O)C1` [Example 1, (2S,4S)-4-({4-[(3-chloro-2-fluorophenyl)amino]-7-methoxyquinazolin-6-yl}oxy)-1-methylpiperidine-2-carboxamide]: the IC50 (as a rule, the concentration that inhibits the measured activity by half) amounted to 56 nM. As for `CNC(=O)[C@@H]1C[C@@H](Oc2cc3c(Nc4cccc(Cl)c4F)ncnc3cc2OC)CCN1C` [Example 2, (2S,4S)-4-({4-[(3-chloro-2-fluorophenyl)amino]-7-methoxyquinazolin-6-yl}oxy)-N,1-dimethylpiperidine-2-carboxamide], the IC50 worked out at 61 nM. The IC50 values of the last two molecules are within 1.5-fold of each other.

Take `CNC(=O)[C@H]1C[C@H](Oc2cc3c(Nc4cccc(Cl)c4F)ncnc3cc2OC)CCN1C` [Example 3, (2R,4R)-4-({4-[(3-chloro-2-fluorophenyl)amino]-7-methoxyquinazolin-6-yl}oxy)-N,1-dimethylpiperidine-2-carboxamide]: the IC50 is 23 nM.
